Laboratory results taken from patent US12264159B2, “Functionalized heterocycles as antiviral agents” (Enanta Pharmaceuticals, Inc., priority 2018, dated 2025).

Legend:
[1] = Compound induced cellular toxicity in HepG2 cells, ATPlite 1Step; type: cell-based; details: human, three days exposure, 50% reduction of total ATP vs no drug controls
Procedure: At day 3, post seeding cells are treated with ATPlite 1Step according to the manufacturer's instructions.

HBV in 2.2.15 cells = test: 2.2.15 cells: viral product in cell lysates quantified via quantitative real time PCR; type: cell-based, hepatitis B virus (HBV); details: Hepatitis B virus, 120 h, day 5 post treatment, 50% reduction of viral product vs no drug controls, readout (qPCR, HBsAg or HBeAg) not specified for the column
In short: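 HBV product was measured at day 5 by lysate qPCR or by supernatant HBsAg/HBeAg ELISA, in 2.2.15 cells seeded at 35,000/well and exposed to 5-fold compound dilution series (0.5% DMSO). EC50 is 50% reduction of viral product relative to untreated controls.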

| SMILES | CC50 at 3 days [1] | EC50 (HBV in 2.2.15 cells) |
| --- | --- | --- |
| CCCCOc1ccccc1-c1cc2n(n1)C[C@@H](C(C)(C)C)n1cc(C(=O)O)c(=O)cc1-2 [Example 78, (R)-2-(2-butoxyphenyl)-6-(tert-butyl)-10-oxo-5,6-dihydro-10H-pyrazolo[1,5-a]pyrido[2,2-c]pyrazine-12-carboxylic acid] | > 25 µM | < 0.1 µM |
| CC(C)(C)[C@@H]1Cn2nc(-c3cccc(OC(F)(F)F)c3)cc2-c2cc(=O)c(C(=O)O)cn21 [Example 17, (R)-6-(tert-butyl)-10-oxo-2-(3-(trifluoromethoxy)phenyl)-5,6-dihydro-10H-pyrazolo[1,5-a]pyrido[2,2-c]pyrazine-12-carboxylic acid] | > 25 µM | < 0.1 µM |
| CC(C)(C)[C@@H]1Cn2nc(-c3cc(F)ccc3C#N)cc2-c2cc(=O)c(C(=O)O)cn21 [Example 42, (R)-6-(tert-butyl)-2-(2-cyano-5-fluorophenyl)-10-oxo-5,6-dihydro-10H-pyrazolo[1,5-a]pyrido[2,2-c]pyrazine-12-carboxylic acid] | > 25 µM | < 0.1 µM |
| CC(C)(C)[C@@H]1Cn2ncc(-c3cccc(OC(F)(F)F)c3)c2-c2cc(=O)c(C(=O)O)cn21 [Example 116, (R)-6-(tert-butyl)-10-oxo-1-(3-(trifluoromethoxy)phenyl)-5,6-dihydro-10H-pyrazolo[1,5-a]pyrido[2,1-c]pyrazine-9-carboxylic acid] | > 25 µM | < 0.1 µM |
| CC(C)(C)[C@@H]1Cn2nc(-c3ccccc3OC3CC3)cc2-c2cc(=O)c(C(=O)O)cn21 [Example 81, (R)-6-(tert-butyl)-2-(2-cyclopropoxyphenyl)-10-oxo-5,6-dihydro-10H-pyrazolo[1,5-a]pyrido[2,2-c]pyrazine-12-carboxylic acid] | > 25 µM | < 0.1 µM |
| CC(C)(C)[C@@H]1Cn2nc(-c3cccc4c3OCCO4)cc2-c2cc(=O)c(C(=O)O)cn21 [Example 57, (R)-6-(tert-butyl)-2-(2,3-dihydrobenzo[b][1,4]dioxin-5-yl)-10-oxo-5,6-dihydro-10H-pyrazolo[1,5-a]pyrido[2,2-c]pyrazine-12-carboxylic acid] | > 25 µM | < 0.1 µM |
| CC(C)(C)[C@@H]1Cn2ncc(-c3c(F)ccc4c3OCO4)c2-c2cc(=O)c(C(=O)O)cn21 [Example 123, (R)-6-(tert-butyl)-1-(5-fluorobenzo[d][1,3]dioxol-4-yl)-10-oxo-5,6-dihydro-10H-pyrazolo[1,5-a]pyrido[2,1-c]pyrazine-9-carboxylic acid] | > 25 µM | < 0.1 µM |
| CC(C)Oc1ccccc1-c1cc2n(n1)C[C@@H](C(C)(C)C)n1cc(C(=O)O)c(=O)cc1-2 [Example 82, (R)-6-(tert-butyl)-2-(2-isopropoxyphenyl)-10-oxo-5,6-dihydro-10H-pyrazolo[1,5-a]pyrido[2,2-c]pyrazine-12-carboxylic acid] | > 25 µM | < 0.1 µM |
| CC(C)[C@@H]1Cn2nc(-c3ccccc3)c(-c3ccccc3)c2-c2cc(=O)c(-c3ncn[nH]3)cn21 [Example 192, (R)-6-isopropyl-1,2-diphenyl-9-(1H-1,2,4-triazol-5-yl)-5,6-dihydro-10H-pyrazolo[1,5-a]pyrido[2,1-c]pyrazin-10-one] | > 25 µM | < 0.1 µM |
| O=C(O)c1cn2c(cc1=O)-c1c(-c3ccccc3)c(-c3ccccc3)nn1CC2 [Example 199, 10-oxo-1,2-diphenyl-5,6-dihydro-10H-pyrazolo[1,5-a]pyrido[2,1-c]pyrazine-9-carboxylic acid] | > 25 µM | < 0.1 µM |
| CC(C)(C)[C@@H]1Cn2nc(-c3cccc(F)c3F)cc2-c2cc(=O)c(C(=O)O)cn21 [Example 30, (R)-6-(tert-butyl)-2-(2,3-difluorophenyl)-10-oxo-5,6-dihydro-10H-pyrazolo[1,5-a]pyrido[2,2-c]pyrazine-12-carboxylic acid] | > 25 µM | < 0.1 µM |
| COc1ccc(OC)c(-c2cc3n(n2)C[C@@H](C(C)(C)C)n2cc(C(=O)O)c(=O)cc2-3)c1 [Example 32, (R)-6-(tert-butyl)-2-(2,5-dimethoxyphenyl)-10-oxo-5,6-dihydro-10H-pyrazolo[1,5-a]pyrido[2,2-c]pyrazine-12-carboxylic acid] | > 25 µM | < 0.1 µM |
| CC(C)(C)[C@@H]1Cn2nc(-c3c(F)cccc3C(N)=O)cc2-c2cc(=O)c(C(=O)O)cn21 [Example 53, (R)-6-(tert-butyl)-2-(2-carbamoyl-6-fluorophenyl)-10-oxo-5,6-dihydro-10H-pyrazolo[1,5-a]pyrido[2,2-c]pyrazine-12-carboxylic acid] | > 25 µM | 0.2 to 1 µM |
| CC(C)(C)[C@@H]1Cn2nc(C3CC3)c(-c3ccccc3F)c2-c2cc(=O)c(-c3ncn[nH]3)cn21 [Example 198, (R)-6-(tert-butyl)-2-cyclopropyl-1-(2-fluorophenyl)-9-(1H-1,2,4-triazol-5-yl)-5,6-dihydro-10H-pyrazolo[1,5-a]pyrido[2,1-c]pyrazin-10-one] | > 25 µM | < 0.1 µM |
| Cc1cccc(-c2c(-c3ccc(F)cc3)nn3c2-c2cc(=O)c(C(=O)O)cn2[C@H](C(C)(C)C)C3)c1 [Example 170, (R)-6-(tert-butyl)-2-(4-fluorophenyl)-10-oxo-1-(m-tolyl)-5,6-dihydro-10H-pyrazolo[1,5-a]pyrido[2,1-c]pyrazine-9-carboxylic acid] | 10 to 25 µM | < 0.1 µM |
| CC(C)(C)[C@@H]1Cn2nc(-c3ccc(F)c4c3OCO4)cc2-c2cc(=O)c(C(=O)O)cn21 [Example 22, (R)-6-(tert-butyl)-2-(7-fluorobenzo[d][1,3]dioxol-4-yl)-10-oxo-5,6-dihydro-10H-pyrazolo[1,5-a]pyrido[2,2-c]pyrazine-12-carboxylic acid] | > 25 µM | < 0.1 µM |
| CC(C)(C)[C@@H]1Cn2nc(-c3ccccc3F)c(-c3ccccc3F)c2-c2cc(=O)c(C(=O)O)cn21 [Example 95, (R)-6-(tert-butyl)-1,2-bis(2-fluorophenyl)-10-oxo-5,6-dihydro-10H-pyrazolo[1,5-a]pyrido[2,1-c]pyrazine-9-carboxylic acid] | > 25 µM | < 0.1 µM |
| Cc1ccccc1-c1cnn2c1-c1cc(=O)c(C(=O)O)cn1[C@H](C(C)(C)C)C2 [Example 127, (R)-6-(tert-butyl)-10-oxo-1-(o-tolyl)-5,6-dihydro-10H-pyrazolo[1,5-a]pyrido[2,1-c]pyrazine-9-carboxylic acid] | > 25 µM | < 0.1 µM |
| CC(C)[C@@H]1Cn2nc(C3CC3)c(-c3ccc(O)cc3)c2-c2cc(=O)c(C(=O)O)cn21 [Example 143, (R)-2-cyclopropyl-1-(4-hydroxyphenyl)-6-isopropyl-10-oxo-5,6-dihydro-10H-pyrazolo[1,5-a]pyrido[2,1-c]pyrazine-9-carboxylic acid] | > 25 µM | < 0.1 µM |
| CC(C)[C@@H]1Cn2nc(-c3ccc(F)cc3)c(-c3ccc(F)cc3)c2-c2cc(=O)c(C(=O)O)cn21 [Example 180, (R)-1,2-bis(4-fluorophenyl)-6-isopropyl-10-oxo-5,6-dihydro-10H-pyrazolo[1,5-a]pyrido[2,1-c]pyrazine-9-carboxylic acid] | 10 to 25 µM | < 0.1 µM |
| CCOc1cc(F)ccc1-c1cc2n(n1)C[C@@H](C(C)(C)C)n1cc(C(=O)O)c(=O)cc1-2 [Example 72, (R)-6-(tert-butyl)-2-(2-ethoxy-4-fluorophenyl)-10-oxo-5,6-dihydro-10H-pyrazolo[1,5-a]pyrido[2,2-c]pyrazine-12-carboxylic acid] | > 25 µM | < 0.1 µM |
| COc1ccc(OC(F)(F)F)cc1-c1cc2n(n1)C[C@@H](C(C)(C)C)n1cc(C(=O)O)c(=O)cc1-2 [Example 33, (R)-6-(tert-butyl)-2-(2-methoxy-5-(trifluoromethoxy)phenyl)-10-oxo-5,6-dihydro-10H-pyrazolo[1,5-a]pyrido[2,2-c]pyrazine-12-carboxylic acid] | > 25 µM | < 0.1 µM |
| CC(C)(C)[C@@H]1Cn2nc(-c3cccc4cn[nH]c34)cc2-c2cc(=O)c(C(=O)O)cn21 [Example 67, (R)-6-(tert-butyl)-2-(1H-indazol-7-yl)-10-oxo-5,6-dihydro-10H-pyrazolo[1,5-a]pyrido[2,2-c]pyrazine-12-carboxylic acid] | > 25 µM | < 0.1 µM |
| CC(C)(C)[C@@H]1Cn2nc(-c3cccc4c3OC(F)(F)O4)cc2-c2cc(=O)c(C(=O)O)cn21 [Example 21, (R)-6-(tert-butyl)-2-(2,2-difluorobenzo[d][1,3]dioxol-4-yl)-10-oxo-5,6-dihydro-10H-pyrazolo[1,5-a]pyrido[2,2-c]pyrazine-12-carboxylic acid] | > 25 µM | < 0.1 µM |
| CC(C)[C@@H]1Cn2nc(C3CC3)c(-c3cccnc3)c2-c2cc(=O)c(C(=O)O)cn21 [Example 140, (R)-2-cyclopropyl-6-isopropyl-10-oxo-1-(pyridin-3-yl)-5,6-dihydro-10H-pyrazolo[1,5-a]pyrido[2,1-c]pyrazine-9-carboxylic acid] | > 25 µM | < 0.1 µM |
| CCOc1ccc(F)cc1-c1cc2n(n1)C[C@@H](C(C)(C)C)n1cc(C(=O)O)c(=O)cc1-2 [Example 73, (R)-6-(tert-butyl)-2-(2-ethoxy-5-fluorophenyl)-10-oxo-5,6-dihydro-10H-pyrazolo[1,5-a]pyrido[2,2-c]pyrazine-12-carboxylic acid] | > 25 µM | < 0.1 µM |
| CC(C)(C)[C@@H]1Cn2nc(-c3ccc(F)cc3)c(-c3ccc(F)cc3)c2-c2cc(=O)c(-c3ncn[nH]3)cn21 [Example 194, (R)-6-(tert-butyl)-1,2-bis(4-fluorophenyl)-9-(1H-1,2,4-triazol-5-yl)-5,6-dihydro-10H-pyrazolo[1,5-a]pyrido[2,1-c]pyrazin-10-one] | 10 to 25 µM | < 0.1 µM |
